Data published in publication PMC7914897, “Cytotoxic Potential of a-Azepano- and 3-Amino-3,4-SeCo-Triterpenoids” (International Journal of Molecular Sciences, 2021).

How the values were obtained:
[1] = test system: EKVX (NSC lung cancer); experiment: NCI-60 screen (SRB, 48 h); details: Homo sapiens
[2] = test system: SK-OV-3 (Ovarian cancer); experiment: NCI-60 screen (SRB, 48 h); details: Homo sapiens
[3] = test system: Renal Cancer subpanel; experiment: NCI-60 screen, subpanel; details: Homo sapiens
[4] = test system: T-47D (Breast cancer); experiment: NCI-60 screen (SRB, 48 h); details: Homo sapiens, T47D
[5] = test system: SK-MEL-2 (Melanoma); experiment: NCI-60 screen (SRB, 48 h); details: Homo sapiens
[6] = test system: NCI-H522 (NSC lung cancer); experiment: NCI-60 screen (SRB, 48 h); details: Homo sapiens
[7] = test system: KM12 (Colon cancer); experiment: NCI-60 screen (SRB, 48 h); details: Homo sapiens
[8] = test system: CCRF-CEM (Leukemia); experiment: NCI-60 screen (SRB, 48 h); details: Homo sapiens
[9] = test system: 786-0 (Renal cancer); experiment: NCI-60 screen (SRB, 48 h)
[10] = test system: RXF 393 (Renal cancer); experiment: NCI-60 screen (SRB, 48 h); details: Homo sapiens
[11] = test system: CAKI-1 (Renal cancer); experiment: NCI-60 screen (SRB, 48 h)
[12] = test system: UO-31 (Renal cancer); experiment: NCI-60 screen (SRB, 48 h); details: Homo sapiens
[13] = test system: UACC-62 (Melanoma); experiment: NCI-60 screen (SRB, 48 h); details: Homo sapiens
[14] = test system: RPMI-8226 (Leukemia); experiment: NCI-60 screen (SRB, 48 h); details: Homo sapiens
[15] = test system: PC-3 (Prostate cancer); experiment: NCI-60 screen (SRB, 48 h); details: Homo sapiens
[16] = test system: Prostate cancer subpanel; experiment: NCI-60 screen, subpanel; details: Homo sapiens
[17] = test system: A375 (malignant melanoma); experiment: SRB cytotoxicity assay, 72 h; format: cell-based, human; details: A375, 72 h, cut-off 30 µM
Summary of the method: (§1)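 EC50 values reflect percent surviving cells versus untreated controls, read at 570 nm after SRB staining of TCA-fixed monolayers. Dosing spanned 0–30 µM over 72 h.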

[18] = test system: HT29 (colorectal carcinoma); experiment: SRB cytotoxicity assay, 72 h; format: cell-based, human; details: HT29, 72 h, cut-off 30 µM
Summary of the method: as §1

[19] = test system: FaDu (hypopharyngeal carcinoma); experiment: SRB cytotoxicity assay, 72 h; format: cell-based, human; details: cut-off 30 µM
Summary of the method: as §1

[20] = test system: A2780 (ovarian carcinoma); experiment: SRB cytotoxicity assay, 72 h; format: cell-based, human; details: A2780, 72 h, cut-off 30 µM
Summary of the method: as §1

[21] = test system: IGROV1 (Ovarian cancer); experiment: NCI-60 screen (SRB, 48 h); details: Homo sapiens
[22] = test system: A549/ATCC (NSC lung cancer); experiment: NCI-60 screen (SRB, 48 h); details: Homo sapiens
[23] = test system: K-562 (Leukemia); experiment: NCI-60 screen (SRB, 48 h); details: Homo sapiens
[24] = test system: NSC lung cancer subpanel; experiment: NCI-60 screen, subpanel; details: Homo sapiens

For `CC1(C)CC[C@]23CC[C@]4(C)[C@H](CC[C@@H]5[C@@]6(C)CCCNC(C)(C)[C@@H]6CC[C@]54C)[C@H]2[C@H]1OC3` [Compound 7, Azepanoallobetulin], which GI50 [1] is on record?
The GI50 was 1.68 µM.

And the IC (TGI) ([1]; 48 h, read-out: TGI)?
The IC (TGI) was 3.37 µM.

And the CC50 ([1]; read-out: LC50)?
The CC50 was 6.77 µM.

And the GI50 ([2]; SK-OV-3)?
Its GI50 is 2.73 µM.

What about the IC (TGI) ([2]; SK-OV-3, 48 h, read-out: TGI) of the same compound?
Its IC (TGI) is 7.93 µM.

What about the CC50 ([2]; SK-OV-3, read-out: LC50) of the same compound?
The CC50 was 36.9 µM.

And the IC (TGI) ([3]; 48 h, read-out: TGI MG_MID)?
The IC (TGI) was 3.22 µM.

What about the GI50 ([3]; read-out: GI50 MG_MID) of the same compound?
Its GI50 is 1.67 µM.

What about the CC50 ([3]; read-out: LC50 MG_MID) of the same compound?
The CC50 was 6.21 µM.

What about the GI50 [4] of the same compound?
The GI50 was 1.71 µM.

What about the IC (TGI) ([4]; 48 h, read-out: TGI) of the same compound?
The IC (TGI) was 3.69 µM.

What about the CC50 ([4]; read-out: LC50) of the same compound?
Its CC50 is 7.99 µM.

What about the GI50 ([5]; SK-MEL-2) of the same compound?
The GI50 was 1.95 µM.

What about the IC (TGI) ([5]; SK-MEL-2, 48 h, read-out: TGI) of the same compound?
The IC (TGI) was 4.09 µM.

What about the CC50 ([5]; SK-MEL-2, read-out: LC50) of the same compound?
Its CC50 is 8.57 µM.

What about the GI50 ([6]; NCI-H522) of the same compound?
The GI50 was 1.9 µM.

What about the IC (TGI) ([6]; NCI-H522, 48 h, read-out: TGI) of the same compound?
The IC (TGI) was 3.77 µM.

What about the CC50 ([6]; NCI-H522, read-out: LC50) of the same compound?
Its CC50 is 7.49 µM.

What about the GI50 ([7]; KM12) of the same compound?
The GI50 was 1.86 µM.

And the IC (TGI) ([7]; KM12, 48 h, read-out: TGI)?
Its IC (TGI) is 3.44 µM.

What about the GI50 [8] of the same compound?
The GI50 was 2.32 µM.

And the IC (TGI) ([8]; 48 h, read-out: TGI)?
Its IC (TGI) is 6.73 µM.

What about the CC50 ([8]; read-out: LC50) of the same compound?
Its CC50 is > 100 µM.

What about the “Growth % of the Most Sensitive Cell Lines” value ([9]; 786-0, 1 dose 10 µM) of the same compound?
Its value is −96.23%.

What about the GI50 ([9]; Homo sapiens, 786-0) of the same compound?
Its GI50 is 1.66 µM.

What about the IC (TGI) ([9]; Homo sapiens, 786-0, 48 h, read-out: TGI) of the same compound?
Its IC (TGI) is 3.21 µM.

What about the CC50 ([9]; Homo sapiens, 786-0, read-out: LC50) of the same compound?
The CC50 was 6.18 µM.

And the GI50 ([10]; RXF 393)?
Its GI50 is 1.56 µM.

What about the IC (TGI) ([10]; RXF 393, 48 h, read-out: TGI) of the same compound?
Its IC (TGI) is 2.98 µM.

And the CC50 ([10]; RXF 393, read-out: LC50)?
The CC50 was 5.69 µM.

And the “Growth % of the Most Sensitive Cell Lines” value ([11]; CAKI-1, 1 dose 10 µM)?
The value was −92.03%.

What about the GI50 ([11]; Homo sapiens, CAKI-1) of the same compound?
Its GI50 is 1.62 µM.

What about the IC (TGI) ([11]; Homo sapiens, CAKI-1, 48 h, read-out: TGI) of the same compound?
Its IC (TGI) is 2.97 µM.

What about the CC50 ([11]; Homo sapiens, CAKI-1, read-out: LC50) of the same compound?
The CC50 was 5.45 µM.

What about the GI50 ([12]; UO-31) of the same compound?
The GI50 was 1.56 µM.

And the IC (TGI) ([12]; UO-31, 48 h, read-out: TGI)?
The IC (TGI) was 3 µM.

What about the CC50 ([12]; UO-31, read-out: LC50) of the same compound?
Its CC50 is 5.77 µM.

And the GI50 ([13]; UACC-62)?
Its GI50 is 1.79 µM.

What about the IC (TGI) ([13]; UACC-62, 48 h, read-out: TGI) of the same compound?
Its IC (TGI) is 3.21 µM.

What about the CC50 ([13]; UACC-62, read-out: LC50) of the same compound?
The CC50 was 5.77 µM.

What about the GI50 ([14]; RPMI-8226) of the same compound?
The GI50 was 1.94 µM.

And the IC (TGI) ([14]; RPMI-8226, 48 h, read-out: TGI)?
The IC (TGI) was 4.58 µM.

And the CC50 ([14]; RPMI-8226, read-out: LC50)?
Its CC50 is 96.8 µM.

What about the GI50 ([15]; PC-3) of the same compound?
The GI50 was 1.61 µM.

And the IC (TGI) ([15]; PC-3, 48 h, read-out: TGI)?
Its IC (TGI) is 3.17 µM.

What about the CC50 ([15]; PC-3, read-out: LC50) of the same compound?
The CC50 was 6.25 µM.

And the IC (TGI) ([16]; 48 h, read-out: TGI MG_MID)?
Its IC (TGI) is 3.2 µM.

And the GI50 ([16]; read-out: GI50 MG_MID)?
The GI50 was 1.67 µM.

And the CC50 ([16]; read-out: LC50 MG_MID)?
Its CC50 is 6.12 µM.

And the EC50 [17]?
Its EC50 is “n.s”.

What about the EC50 [18] of the same compound?
Its EC50 is “n.s”.

And the EC50 [19]?
The EC50 was “n.s”.

What about the EC50 [20] of the same compound?
The EC50 was “n.s”.

And the GI50 ([21]; IGROV-1)?
Its GI50 is 1.79 µM.

And the IC (TGI) ([21]; IGROV-1, 48 h, read-out: TGI)?
Its IC (TGI) is 3.48 µM.

And the CC50 ([21]; IGROV-1, read-out: LC50)?
Its CC50 is 6.78 µM.

What about the GI50 ([22]; A549) of the same compound?
Its GI50 is 1.81 µM.

What about the IC (TGI) ([22]; A549, 48 h, read-out: TGI) of the same compound?
The IC (TGI) was 3.43 µM.

And the CC50 ([22]; A549, read-out: LC50)?
Its CC50 is 6.5 µM.

What about the GI50 ([23]; K562) of the same compound?
Its GI50 is 1.96 µM.

And the IC (TGI) ([23]; K562, 48 h, read-out: TGI)?
The IC (TGI) was 7 µM.

And the CC50 ([23]; K562, read-out: LC50)?
The CC50 was > 100 µM.

What about the IC (TGI) ([24]; 48 h, read-out: TGI MG_MID) of the same compound?
The IC (TGI) was 3.28 µM.

What about the GI50 ([24]; read-out: GI50 MG_MID) of the same compound?
The GI50 was 1.49 µM.

And the CC50 ([24]; read-out: LC50 MG_MID)?
Its CC50 is 6.73 µM.
